Measurements from ChEMBL document CHEMBL4257451, “Synergism of fused bicyclic 2-aminothiazolyl compounds with polymyxin B against Klebsiella pneumoniae” (Medchemcomm, 2017).

Key:
Klebsiella pneumoniae [1] = experiment: Synergistic antibacterial activity against Klebsiella pneumoniae SIPI-KPN-1712 assessed as fractional Inhibitory concentration index in presence of polymixin B at 2 ug/ml by broth microdilution method; assay type: functional
Klebsiella pneumoniae [2] = experiment: Synergistic antibacterial activity against Klebsiella pneumoniae SIPI-KPN-1712 assessed as fold reduction in polymixin B MIC at 4 ug/ml by broth microdilution method relative to polymixin B alone; assay type: functional
Klebsiella pneumoniae [3] = experiment: Growth inhibition of Klebsiella pneumoniae SIPI-KPN-1712 by broth microdilution method; assay type: organism-based; details: in vitro
Klebsiella pneumoniae [4] = experiment: Synergistic antibacterial activity against Klebsiella pneumoniae SIPI-KPN-1712 assessed as polymixin B MIC at 4 ug/ml by broth microdilution method (reference value: 32 ug/ml); assay type: functional

MIC (Klebsiella pneumoniae [4]) [µg/mL]	SMILES	fractional inhibitory concentration index (FICI) (Klebsiella pneumoniae [1])	fold change (FC) (Klebsiella pneumoniae [2])	MIC (Klebsiella pneumoniae [3]) [µg/mL]
2	COC1CCCc2nc(Nc3ccc(Br)cc3)sc21 (stereo not drawn)	0.09	16	> 128
16	CCOC1CCCc2nc(Nc3ncccn3)sc21 (stereo not drawn)	0.53	–	> 128
16	FC(F)(F)c1ccc2nc(Nc3ccccc3)sc2c1	0.53	–	> 128
8	Clc1ccc(Nc2nc3c(s2)C(OC2CCCC2)CCC3)cc1 (stereo not drawn)	0.28	–	> 128
32	COC1CCCc2nc(Nc3ccc4ccccc4n3)sc21 (stereo not drawn)	1.03	–	> 128
8	COC1CCCc2nc(Nc3ccc(C(F)(F)F)cc3)sc21 (stereo not drawn)	0.28	–	> 128
32	COC1CCCc2nc(NCc3ccccc3)sc21 (stereo not drawn)	1.03	–	> 128
32	COCCOC1CCCc2nc(Nc3ccc(C)cc3)sc21 (stereo not drawn)	1.03	–	> 128
16	COC1CCCc2nc(Nc3cccc(C(F)(F)F)c3)sc21 (stereo not drawn)	0.53	–	> 128
